The subject of experiment [1] is HT29 cells. The experiment in a line: HT29 cell necroptosis assay (TNF-α/Smac mimetic/z-VAD induced necrosis, viability). In kind it is cell-based, human. To be noted: TNF-α/Smacmimetic/z-VAD induced necrosis.
The test system of experiment [2] is HT29 cells. The experiment is described as above. The class given is cell-based, human. The conditions noted are these: 10 μM test compound pretreated one hour, TNF-α (40 ng/mL), Smacmimetic (100 nM), z-VAD (20 μM) for 48 hours. On the procedure:
Biological in Vitro HT29 Cell Assay.
The efficacies of RIP1 inhibitors were tested in vitro using human colon cancer TH29 cells in a necroptosis assay. For the assay, Cells were added to 96-well plates and then 10 μM of the test compound was pretreated for one hour. Then the cells were treated with TNF-α (40 ng/mL), Smacmimetic (100 nM) and z-VAD (20 μM) for 48 hours, and the viability was quantified. DMSO pretreatment group was negative control, Nec-1 pretreatment group was positive control.

[3] abbreviates: Homo sapiens, HT-29, HT29 cells, values in nM.
Setting [4] is: Homo sapiens, HT-29, HT29 cells, values given in μM.

In the experiment with HT29 cells [1] (setting [3]), `CC(=O)Nc1nc2ccc(-c3cnc(C)c(NC(=O)OC4CCC4)c3)cc2s1` [Compound A92] yielded an IC50 of 121 nM. `Cc1ncc(-c2ccc3nc(N)sc3c2)cc1NC(=O)OC1CCCCC1` [Compound A70, Cyclohexyl (5-(2-aminobenzo[d]thiazol-6-yl)-2-methylpyridin-3-yl)carbamate] had an IC50 with HT29 cells [1] (setting [3]) of 93 nM. The IC50 values of the last two compounds are within 1.5-fold of each other. `CCC(C)OC(=O)Nc1cc(-c2ccc3nc(NC(C)=O)sc3c2)cnc1C` (centres unmarked) [Compound A86] registered an IC50 in the experiment with HT29 cells [1] (setting [3]) of 87 nM. With `COc1ncc(-c2ccc3nc(NC(C)=O)sc3c2)cc1NC(=O)OC1CCCCC1` [Compound A69], the IC50 in the experiment on HT29 cells [1] (setting [3]) amounted to 107 nM.

The compound `CC(=O)Nc1nc2ccc(-c3cnc(C)c(NC(=O)O[C@H]4CC[C@@H](O)CC4)c3)cc2s1` [Compound A80] had a concentration for half-maximal inhibition (IC50) in the experiment with HT29 cells [1] (setting [3]) of 653 nM. In the experiment with HT29 cells [1] (setting [3]), `CC(=O)Nc1cn2cc(-c3cnc(C)c(NC(=O)OC4CCCCC4)c3)ccc2n1` [Compound A50, Cyclohexyl (5-(2-acetamidoimidazo[1,2-a]pyridin-6-yl)-2-methylpyridin-3-yl)carbamate] gave an IC50 of 97 nM.

In the case of `CC(=O)Nc1nc2cnc(-c3cnc(C)c(NC(=O)OC4CCCCC4)c3)cc2s1` [Compound A64], in the experiment with HT29 cells [1] (setting [4]), the IC50 was determined as 1000 nM.

On to `CC(=O)Nc1nc2ccc(-c3cnc(C)c(NC(=O)NC4CCCCC4)c3)cc2s1` [Compound A49], for which half-maximal inhibition in the experiment on HT29 cells [1] (setting [3]) (IC50) required 357 nM. `CC(=O)Nc1nc2ccc(-c3cnc(C)c(NC(=O)CC4CCCCC4)c3)cc2s1` [Compound A25]: in the experiment with HT29 cells [2], the “HT29 Inhibition (10 μM)” value stood at 68%. Moreover, the concentration for half-maximal inhibition (IC50) with HT29 cells [1] (setting [3]) is 255 nM.

`CC(=O)Nc1nc2ccc(-c3cnc(C)c(NC(=O)OC4CCC(=O)CC4)c3)cc2s1` [Compound A78] had an IC50 in the experiment on HT29 cells [1] (setting [3]) of 867 nM.

`Cc1ncc(-c2ccc3nc(NC(=O)c4ccccc4)sc3c2)cc1NC(=O)OC1CCCCC1` [Compound A104] showed an IC50 in the experiment on HT29 cells [1] (setting [3]) of 60 nM. Consider `CC(=O)Nc1nc2ccc(-c3cnc(F)c(NC(=O)OC4CCCCC4)c3)cc2s1` [Compound A84], for which, in the experiment with HT29 cells [1] (HT29 cells, values in nM), inhibition was half-maximal at 31 nM (IC50).

Consider `CC(=O)Nc1nc2ccc(-c3cnc(C)c(NC(=O)OC4CCC5(CC4)CC5)c3)cc2s1` [Compound A95], for which the IC50 with HT29 cells [1] (setting [3]) worked out at 53 nM.

Consider `CC(=O)Nc1nc2ccc(-c3cnc(C)c(NC(=O)CN4CCCCC4)c3)cc2s1` [Compound A40], for which the “HT29 Inhibition (10 μM)” value in the experiment with HT29 cells [2] came to 79%. Further, half-maximal inhibition with HT29 cells [1] (setting [4]) (IC50) required 1100 nM. Take `Cc1ncc(-c2ccc3nc(NC(=O)C4CC4)cn3n2)cc1NC(=O)OC1CCCCC1` [Compound A67]: the IC50 in the experiment on HT29 cells [1] (setting [3]) was 31 nM. `CC(=O)Nc1nc2ccc(-c3cnc(C)c(NC(=O)OC4CCCC4)c3)cc2s1` [Compound A47] showed an IC50 with HT29 cells [1] (setting [3]) of 124 nM. As for `CC(=O)Nc1nc2ccc(-c3cnc(C)c(NC(=O)CC(C)C)c3)cc2s1` [Compound A44], the “HT29 Inhibition (10 μM)” value in the experiment with HT29 cells [2] is reported as 47%. The IC50 in the experiment on HT29 cells [1] (setting [4]) stood at 2690 nM. As for `CC(=O)Nc1nc2ccc(-c3cnc(F)c(NC(=O)OC4CCCCC4)c3)cc2s1` [Compound A90], in the experiment on HT29 cells [1] (HT29 cells, values in nM), it took 300 nM to reach half-maximal inhibition (IC50). In the experiment on HT29 cells [1] (setting [3]), `CC(=O)Nc1ccc2cc(-c3cnc(C)c(NC(=O)OC4CCCCC4)c3)ccc2n1` [Compound A99] gave an IC50 of 441 nM. This counts as sub-micromolar. In the case of `CC(=O)Nc1nc2ccc(-c3cnc(C)c(NC(=O)OC4CCCCC4)c3)cn2n1` [Compound A53], in the experiment on HT29 cells [1] (setting [4]), the half-maximal inhibitory concentration (IC50) was found to be 2190 nM. This counts as single-digit micromolar. On to `Cc1ncc(-c2ccc3nc(NC(=O)C4CC4)sc3c2)cc1NC(=O)OC1CCCOC1` (centres unmarked) [Compound A68], for which, in the experiment with HT29 cells [1] (setting [3]), 31 nM corresponded to half-maximal inhibition (IC50). Take `Cc1ncc(-c2ccc3nc(NC(=O)C4CC4)sc3c2)cc1NC(=O)OC1CCOCC1` [Compound A71]: in the experiment on HT29 cells [1] (setting [3]), the IC50 is 12 nM. For the compound `CNC(=O)Nc1nc2ccc(-c3cnc(C)c(NC(=O)OC4CCCCC4)c3)cc2s1` [Compound A94], the midpoint of inhibition with HT29 cells [1] (setting [3]), the IC50, lay at 10 nM.

In the case of `CCC(=O)Nc1nc2ccc(-c3cnc(C)c(NC(=O)OC4CCCCC4)c3)cc2s1` [Compound A60], the IC50 in the experiment on HT29 cells [1] (setting [3]) is 53 nM. Take `CC(=O)Nc1nc2ccc(-c3cnc(C)c(NC(=O)OC(C)C)c3)cc2s1` [Compound A73]: in the experiment on HT29 cells [1] (setting [3]), inhibition was half-maximal at 287 nM (IC50). Compared with the last compound, the IC50 is about 5.4-fold higher. `CC(=O)Nc1nc2ccc(-c3cnc(C)c(NC(=O)OC(C)(C)C)c3)cc2s1` [Compound A48] showed an IC50 with HT29 cells [1] (setting [3]) of 500 nM.
